The record followed here is patent US4442118A, “Aldose reductase inhibition by 1-(4-chlorobenzoyl)-5-methoxy-2-methyl-1H-indole-3-acetic acid” (Ayerst, McKenna & Harrison, Inc., priority 1981, dated 1984).

The target of this test is lens aldose reductase (Bos taurus, UniProt P16116). Briefly: in vitro aldose reductase inhibition test (modified Hayman and Kinoshita procedure). It counts as biochemical, bovine. On the procedure:
In the present case the procedure of Hayman and Kinoshita is modified in that the final chromatography step is omitted in the preparation of the enzyme from bovine lens.
The following results were obtained when indomethacin was evaluated in the above in vitro test: […]

As to `COc1ccc2c(c1)c(CC(=O)O)c(C)n2C(=O)c1ccc(Cl)cc1` [Indomethacin, 1-(4-Chlorobenzoyl)-5-methoxy-2-methyl-1H-indole-3-acetic acid], the “inhibitor of lens aldose reductase (in words)” value is on record as “potent inhibitor of lens aldose reductase”.
